The text below walks through data of patent US7335814B2, “Transgenic cells expressing glucosyltransferase nucleic acids” (The University of York, priority 2000, dated 2008).

In one series the target is T1, recombinant GTase A320 (Arabidopsis thaliana, UniProt Q9LVF0).
T1 construct: made in house; host or cells: E. coli
T1 sequence (Q9LVF0 1-496): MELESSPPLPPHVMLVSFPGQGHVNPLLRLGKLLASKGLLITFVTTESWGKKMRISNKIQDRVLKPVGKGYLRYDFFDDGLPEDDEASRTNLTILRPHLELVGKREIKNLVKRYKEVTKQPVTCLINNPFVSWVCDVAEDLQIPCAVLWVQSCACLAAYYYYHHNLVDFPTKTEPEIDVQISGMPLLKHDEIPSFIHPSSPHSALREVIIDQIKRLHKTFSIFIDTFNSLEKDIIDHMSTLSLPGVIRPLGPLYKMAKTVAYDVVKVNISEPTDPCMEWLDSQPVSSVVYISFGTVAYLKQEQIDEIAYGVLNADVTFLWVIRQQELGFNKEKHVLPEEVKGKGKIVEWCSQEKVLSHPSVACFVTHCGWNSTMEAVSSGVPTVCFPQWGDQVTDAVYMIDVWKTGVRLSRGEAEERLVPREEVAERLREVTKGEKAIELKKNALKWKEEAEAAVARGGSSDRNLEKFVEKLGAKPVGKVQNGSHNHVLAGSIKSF
Put plainly: Specific activity of recombinant GTase producing glucose ester against lignin precursors (HPLC). It counts as biochemical. Conditions: 5 mM UDPG, 0.2 μg GTase, 200 μl, 20° C., 30 min.

The next series addresses T2, recombinant GTase A43 (Arabidopsis thaliana, UniProt O23402).
T2 construct: made in house; host or cells: E. coli
Described as above. It counts as biochemical. Conditions: 0.5 ml of potential substrates, 5 mM UDPG, 0.2 μg GTase, 200 μl, 20° C., 30 min.

The next series concerns the target T3, recombinant GTase A911 (Arabidopsis thaliana, UniProt O22182).
T3 sequence (O22182 1-456): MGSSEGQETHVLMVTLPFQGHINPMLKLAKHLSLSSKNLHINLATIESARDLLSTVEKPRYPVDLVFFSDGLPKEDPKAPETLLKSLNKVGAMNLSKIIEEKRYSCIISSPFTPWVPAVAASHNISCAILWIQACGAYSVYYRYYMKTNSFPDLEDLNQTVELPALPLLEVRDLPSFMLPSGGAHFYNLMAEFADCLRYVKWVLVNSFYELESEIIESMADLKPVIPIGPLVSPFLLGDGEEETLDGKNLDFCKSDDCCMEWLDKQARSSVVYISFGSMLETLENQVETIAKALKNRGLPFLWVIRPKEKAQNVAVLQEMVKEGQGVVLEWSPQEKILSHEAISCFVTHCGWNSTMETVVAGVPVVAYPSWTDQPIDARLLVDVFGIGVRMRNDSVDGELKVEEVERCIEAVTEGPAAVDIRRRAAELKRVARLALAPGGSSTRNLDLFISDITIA
The series is described as above. Conditions: 0.5 ml of potential substrates, 5 mM UDPG, 0.2 μg GTase, 200 μl, 20° C., 30 min. In kind it is biochemical. The arrangement: made in house; host or cells: E. coli.

The next series concerns the target T4, recombinant GTase A062 (Arabidopsis thaliana, UniProt Q9LR44).
T4 construct: made in house; host or cells: E. coli
T4 sequence (Q9LR44 1-469): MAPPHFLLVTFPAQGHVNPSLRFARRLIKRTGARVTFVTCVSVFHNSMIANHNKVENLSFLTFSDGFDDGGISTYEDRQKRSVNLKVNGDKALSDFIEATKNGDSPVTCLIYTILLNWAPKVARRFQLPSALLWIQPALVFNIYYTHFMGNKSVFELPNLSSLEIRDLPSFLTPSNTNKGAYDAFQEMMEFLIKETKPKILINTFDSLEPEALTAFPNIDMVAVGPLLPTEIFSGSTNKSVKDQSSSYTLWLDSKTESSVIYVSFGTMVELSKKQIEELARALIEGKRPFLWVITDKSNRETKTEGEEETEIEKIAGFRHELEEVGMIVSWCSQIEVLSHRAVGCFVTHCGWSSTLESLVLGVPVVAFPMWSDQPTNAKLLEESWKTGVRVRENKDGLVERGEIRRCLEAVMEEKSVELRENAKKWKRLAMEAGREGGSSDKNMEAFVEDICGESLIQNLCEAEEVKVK
Described as above. The note with it: 0.5 ml of potential substrates, 5 mM UDPG, 0.2 μg GTase, 200 μl, 20° C., 30 min. In kind it is biochemical.

The next series has as its target T5, recombinant GTase A961 (Arabidopsis thaliana, UniProt O82381).
T5 construct: made in house; host or cells: E. coli
T5 sequence (O82381 1-481): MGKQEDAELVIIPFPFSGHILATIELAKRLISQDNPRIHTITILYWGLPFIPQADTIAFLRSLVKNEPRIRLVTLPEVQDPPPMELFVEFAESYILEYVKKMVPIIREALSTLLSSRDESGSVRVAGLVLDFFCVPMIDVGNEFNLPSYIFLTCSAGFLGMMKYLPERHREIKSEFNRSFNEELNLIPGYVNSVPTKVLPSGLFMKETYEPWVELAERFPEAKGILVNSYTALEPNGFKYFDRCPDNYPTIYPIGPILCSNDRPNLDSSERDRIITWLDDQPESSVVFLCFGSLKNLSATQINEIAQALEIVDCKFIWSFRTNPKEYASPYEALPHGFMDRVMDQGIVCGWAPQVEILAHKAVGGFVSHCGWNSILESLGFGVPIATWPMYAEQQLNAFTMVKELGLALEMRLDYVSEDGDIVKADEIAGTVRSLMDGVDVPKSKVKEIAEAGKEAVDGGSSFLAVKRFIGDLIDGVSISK
Nature of the series: Specific activity of recombinant GTase producing O-glucosides against lignin precursors (HPLC). In kind it is biochemical. The note with it: 30° C.; ND = not detected.

Another series deals with T6, UGT71C1 (Arabidopsis thaliana, UniProt O82381).
T6 construct: GST (N); made in house; host or cells: E. coli
T6 sequence (O82381 1-481): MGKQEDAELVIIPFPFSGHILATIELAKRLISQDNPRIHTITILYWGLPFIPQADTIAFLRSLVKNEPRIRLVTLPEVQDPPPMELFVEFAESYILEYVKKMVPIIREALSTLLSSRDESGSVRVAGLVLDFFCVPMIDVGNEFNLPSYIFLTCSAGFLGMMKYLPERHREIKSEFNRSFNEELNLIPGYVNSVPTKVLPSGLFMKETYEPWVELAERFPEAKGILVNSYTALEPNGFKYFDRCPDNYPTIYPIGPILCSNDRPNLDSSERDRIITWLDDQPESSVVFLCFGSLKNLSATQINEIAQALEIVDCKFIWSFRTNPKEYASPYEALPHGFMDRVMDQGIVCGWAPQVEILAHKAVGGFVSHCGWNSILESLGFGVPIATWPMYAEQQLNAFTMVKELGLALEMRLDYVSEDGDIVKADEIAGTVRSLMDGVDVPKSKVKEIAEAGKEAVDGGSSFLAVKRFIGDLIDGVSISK
Put plainly: UGT71C1 glucosyltransferase specific activity towards phenolic compounds (reverse-phase HPLC). In kind it is biochemical. The note with it: 1 mM phenolic compound, 5 mM UDP-glucose, 50 mM TRIS-HCl pH 7.0, 30° C., 30 min; mean of three replicates ± standard deviation.

Another series has as its target T7, recombinant GTase A233 (Arabidopsis thaliana, UniProt Q8W491).
T7 construct: made in house; host or cells: E. coli
Put plainly: Specific activity of recombinant GTase producing O-glucosides against lignin precursors (HPLC). In kind it is biochemical. The note with it: 30° C.; ND = not detected.

For another series, the target named is T8, recombinant GTase A119 (Arabidopsis thaliana, UniProt Q9LVR1).
T8 construct: made in house; host or cells: E. coli
T8 sequence (Q9LVR1 1-481): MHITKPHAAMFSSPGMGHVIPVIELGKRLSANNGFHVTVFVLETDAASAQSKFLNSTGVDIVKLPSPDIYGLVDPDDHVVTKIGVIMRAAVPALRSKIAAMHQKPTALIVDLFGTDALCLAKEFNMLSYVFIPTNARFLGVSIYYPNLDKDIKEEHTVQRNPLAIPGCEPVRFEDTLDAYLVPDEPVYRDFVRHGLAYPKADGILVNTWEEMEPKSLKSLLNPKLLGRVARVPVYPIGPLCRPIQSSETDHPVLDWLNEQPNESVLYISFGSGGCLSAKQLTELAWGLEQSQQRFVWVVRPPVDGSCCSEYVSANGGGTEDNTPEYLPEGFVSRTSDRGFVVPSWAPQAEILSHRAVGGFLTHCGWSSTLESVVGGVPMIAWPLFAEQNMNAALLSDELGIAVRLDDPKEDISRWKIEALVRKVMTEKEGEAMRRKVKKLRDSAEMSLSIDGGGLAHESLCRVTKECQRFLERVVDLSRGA
Described as above. In kind it is biochemical. Conditions: 30° C.; ND = not detected.

A further series deals with T9, recombinant GTase A407 (Arabidopsis thaliana, UniProt O81498).
T9 construct: made in house; host or cells: E. coli
T9 sequence (O81498 1-481): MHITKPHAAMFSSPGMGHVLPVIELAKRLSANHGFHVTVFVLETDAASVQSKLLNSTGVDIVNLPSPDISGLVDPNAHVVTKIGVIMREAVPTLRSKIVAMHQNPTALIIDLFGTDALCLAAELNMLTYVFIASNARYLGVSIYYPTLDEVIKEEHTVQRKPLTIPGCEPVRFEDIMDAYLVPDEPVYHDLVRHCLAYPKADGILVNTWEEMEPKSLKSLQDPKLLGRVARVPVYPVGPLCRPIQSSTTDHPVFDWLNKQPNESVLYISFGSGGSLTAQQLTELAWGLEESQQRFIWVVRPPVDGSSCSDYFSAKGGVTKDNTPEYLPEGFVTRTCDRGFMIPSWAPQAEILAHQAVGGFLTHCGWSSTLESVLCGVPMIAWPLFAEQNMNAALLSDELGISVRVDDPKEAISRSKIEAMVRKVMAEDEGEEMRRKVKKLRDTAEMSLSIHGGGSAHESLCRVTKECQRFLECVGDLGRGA
The series is described as above. Conditions: 30° C.; ND = not detected. It counts as biochemical.

Substrate in series [1]: O=C(O)C=Cc1ccccc1
Put plainly: Kinetic studies (Michaelis-Menten) on recombinant GTase producing glucose esters. Conditions: other: glucose ester formation; pH 7.0; 30.0 °C. In kind it is biochemical, Arabidopsis thaliana.

Substrate in series [2]: O=C(O)/C=C/c1ccc(O)cc1
Described as above. In kind it is biochemical, Arabidopsis thaliana. Conditions: other: glucose ester formation; pH 7.0; 30.0 °C.

For the molecule `O=C(O)C=Cc1ccc(O)c(O)c1` [Caffeic acid, 3,4-dihydroxycinnamic acid], the “Specific activity of A320 (substrate converted to glucose ester)” value on recombinant GTase A320 is on record as 0.05 nkat/mg. Moreover, the “Specific activity of A43 (substrate converted to glucose ester)” value at recombinant GTase A43 was 0.01 nkat/mg. For the same molecule, the “Specific activity of A911 (substrate converted to glucose ester)” value at recombinant GTase A911 was found to be 0.77 nkat/mg. Further, the “Specific activity of A062 (substrate converted to glucose ester)” value at recombinant GTase A062 is listed as 0.26 nkat/mg. The “Specific activity of A961 (substrate converted to 4-O-glucoside)” value at recombinant GTase A961 is given as 0.07 nkat/mg. Besides, the “Specific activity (UGT71C1)” value at UGT71C1 amounted to 2.9 ± 0.8 nkat/mg. Moreover, the “Specific activity of A233 (substrate converted to 4-O-glucoside)” value at recombinant GTase A233 is given as 0.48 nkat/mg. Moreover, the “Specific activity of A119 (substrate converted to 4-O-glucoside)” value on recombinant GTase A119 is given as 0.13 nkat/mg. In addition, the “Specific activity of A407 (substrate converted to 4-O-glucoside)” value at recombinant GTase A407 amounted to 0.07 nkat/mg.

B1: recombinant GTase A062 (Arabidopsis thaliana) (protein)
chain: MAPPHFLLVTFPAQGHVNPSLRFARRLIKRTGARVTFVTCVSVFHNSMIANHNKVENLSFLTFSDGFDDGGISTYEDRQKRSVNLKVNGDKALSDFIEATKNGDSPVTCLIYTILLNWAPKVARRFQLPSALLWIQPALVFNIYYTHFMGNKSVFELPNLSSLEIRDLPSFLTPSNTNKGAYDAFQEMMEFLIKETKPKILINTFDSLEPEALTAFPNIDMVAVGPLLPTEIFSGSTNKSVKDQSSSYTLWLDSKTESSVIYVSFGTMVELSKKQIEELARALIEGKRPFLWVITDKSNRETKTEGEEETEIEKIAGFRHELEEVGMIVSWCSQIEVLSHRAVGCFVTHCGWSSTLESLVLGVPVVAFPMWSDQPTNAKLLEESWKTGVRVRENKDGLVERGEIRRCLEAVMEEKSVELRENAKKWKRLAMEAGREGGSSDKNMEAFVEDICGESLIQNLCEAEEVKVK
notes: made in house; host or cells: E. coli
In the case of B1, the Km in series [1] came to 4.33 mM; in [2] it was 5.05 mM. Also, the Vmax stood at 2.87 nkat/mg in series [1] and 4.91 nkat/mg in series [2].
